In patent publication US8916681B2, “Compound, use and method” (Medical Research Council, priority 2007, dated 2014):
“Also recorded” adds a separate entry of the source. Non-standard residues stand in square brackets, D forms with d. Residues, ends and D or L forms follow the SMILES beside them.

Experiments:
GnRH neurons = test: GnRH neuron firing, targeted extracellular recordings in brain slices; type: cell-based, mouse; settings: for response of GnRH neuron firing to 1 nM kisspeptin-10 after pretreatment with peptide: 1, 10, 100 nM peptide
Procedure: Firing of GnRH neurons were recorded in brain slices from transgenic female mice in which GFP is genetically targeted to GnRH neurons (42). Mice were housed on a 14 h light, 10 h dark cycle, with lights off at 1630 h, and were maintained on Harlan 2916 rodent chow (Harlan) and water ad libitum. All procedures were approved by the Animal Care and Use Committee of University of Virginia and were conducted within the guidelines of the National Research Council's Guide for the Care and Use of Laboratory Animals. Adult female GnRH-GFP mice were ovariectomized under isoflurane (Abbott Laboratories) anesthesia. Postoperative analgesia was provided by a long-acting local anesthetic (0.25% bupivicaine; 7.5 μl/site; Abbott Laboratories). At the time of surgery, mice received Silastic (Dow Corning) capsules containing 0.625 μg estradiol in sesame oil. […] No more than four cells from a single animal were recorded, all in different slices.
Brain slices were prepared using previously described method (44). Briefly, all solutions were bubbled with a 95% O2/5% CO2 mixture throughout the experiments and for at least 15 min before exposure to the tissue. The brain was rapidly removed and placed in ice-cold, high-sucrose saline solution containing 250 mM sucrose, 3.5 mM KCl, 26 mM NaHCO3, 10 mM glucose, 1.25 mM Na2HPO4, 1.2 mM MgSO4, and 2.5 mM MgCl2. Coronal 300-μm brain slices were cut with a Vibratome 3000 (Technical Products, International, Inc., St. Louis, Mo.). Slices were incubated for 30 min at 30-32 C in a solution of 50% high-sucrose saline and 50% normal saline (NS) containing 135 mM NaCl, 3.5 mM KCl, 10 mM glucose, 1.3 mM Na2HPO4, 1.2 mM MgSO4, and 2.5 mM CaCl2 and then were transferred to a solution of 100% NS at room temperature and kept at least 30 min and no more than 6 h before recording.
Targeted extracellular recordings (also known as loose-patch) were used to study effects of kisspeptin-10 and peptide 234 on GnRH neuron firing activity (45). […] Although these events are not action potentials per se, they accurately reflect changes in the action potential firing rate. For simplicity, we have used the phrases firing rate, firing pattern, and/or firing activity to refer to these events.
Individual brain slices were placed in a recording chamber continuously superfused with oxygenated NS solution and kept at 29-31 C. Cells were visualized with an Olympus BX50WI upright fluorescent microscope with infrared differential interference contrast (Opelco). GnRH neurons were identified by brief illumination at 470 nm to visualize the GFP signal. Patch borosilicate pipettes (World Precision Instruments), which ranged from 1.5-3 ΩM were filled with normal HEPES-buffered solution containing 150 mM NaCl, 10 mM HEPES, 10 mM glucose, 2.5 mM CaCl2, 1.3 mM MgCl2, and 3.5 mM KCl. Pipettes were placed in contact with the GnRH neurons using an MP-285 micromanipulator (Sutter Instruments). Seal resistances ranged from 8 MΩ and either remained stable or increased during recording up to as high as 50 MΩ. Current traces were obtained using an EPC-8 amplifier (HEKA) with the PulseControl XOP (Instrutech) running in Igor Pro (Wavemetrics) on the G4 Macintosh computer (Apple Computer) to acquire data. A voltage-clamp mode with a pipette holding potential of 0 mV, filtering at 10 kHz, digitized with an ITC-18 acquisition interface (Instrutech) was used for the recordings.
Different doses (1 nM, 10 nM, 100 nM) of peptide 234 were used to examine its antagonistic action on kisspeptin-10 activation of gpr-54. Positive control cells were recorded for a 10-min stable baseline, and then treated with kisspeptin-10 for 5 min, followed by a 15-min washout. Experimental cells were recorded for a 5-min stable baseline in NS, followed by 10 min in peptide 234 (1, 10 or 100 nM), then 5 min in kisspeptin-10 plus the same dose of antagonist, followed by a wash in NS. […]

[1] = tested on: HUVECs (Human Umbilical Vein Endothelial Cells); test: Cell migration (wound healing) assay in HUVECs; type: cell-based
Procedure: Human Umbilical Vein Endothelial Cells (HUVECs) isolated from neonatal umbilical cord were used as they endogenously express gpr-54, which is though to be involved in cell migration in the placenta. Chinese hamster ovary (CHO) cells which stably express the human gpr-54 receptor were used as a model cell line for wound healing assays. […] Complete media was added along with 1 nM Kisspeptin-10 for HUVECs and 100 nM Kisspeptin-10 for CHO cells, the optimal concentrations to inhibit cell migration (wound healing) in each cell type, in the presence and absence of antagonist 233, 234, 273 and 276 for HUVECs and 234 for CHOs. […] Cells were photographed on the axiovert 2000 at 20× magnification in phase contrast (Hori et al., 2001. Metastin suppresses the motility and growth of CHO cells transfected with its receptor. Biochem Biophys Res Commun 286, 958-963; Stafford et al., 2002, Identification and characterization of mouse metastasis-suppressor KiSS1 and its G-protein-coupled receptor. Cancer Res 62, 5399-5404).

| SMILES | GnRH neuron firing activity (GnRH neurons; 1 nM agonist, listed as kisspeptin-10) | inhibition of migration in to the wound ([1]; 1 nM) [%] | GnRH neuron firing activity, peptide alone (GnRH neurons; 1 nM, post) [Hz] | GnRH neuron firing activity, peptide alone (GnRH neurons; 1 nM, pre) [Hz] | GnRH neuron firing activity, peptide alone (GnRH neurons; 10 nM, post) [Hz] | GnRH neuron firing activity, peptide alone (GnRH neurons; 10 nM, pre) [Hz] | GnRH neuron firing activity, peptide alone (GnRH neurons; 100 nM, post) [Hz] | GnRH neuron firing activity, peptide alone (GnRH neurons; 100 nM, pre) [Hz] | effect of peptide alone on GnRH neuron firing activity (GnRH neurons; 1, 10, 100 nM) | response of GnRH neuron firing to 1 nM kisspeptin-10 after pretreatment with peptide (GnRH neurons) | response of GnRH neuron firing to 1 nM kisspeptin-10 after pretreatment with peptide (GnRH neurons; listed as peptide 234) | inhibition of migration by 1 nM Kisspeptin in the presence of peptide ([1]; 22 hrs) [%] |
| --- | --- | --- | --- | --- | --- | --- | --- | --- | --- | --- | --- | --- |
| CC(C)C[C@H](NC(=O)CNC(=O)[C@H](Cc1ccccc1)NC(=O)[C@H](CO)NC(=O)[C@H](CC(N)=O)NC(=O)[C@H](Cc1c[nH]c2ccccc12)NC(=O)[C@H](CC(N)=O)NC(=O)[C@@H](N)Cc1ccc(O)cc1)C(=O)N[C@@H](CCCNC(=N)N)C(=O)N[C@@H](Cc1ccccc1)C(N)=O [Kiss, reference compound] | significantly increased; also recorded: markedly increased | 50 | – | – | – | – | – | – | – | – | – | – |
| CC(=O)N[C@H](C)C(=O)N[C@@H](CC(N)=O)C(=O)N[C@@H](Cc1c[nH]c2ccccc12)C(=O)N[C@@H](CC(N)=O)C(=O)NCC(=O)N[C@@H](Cc1ccccc1)C(=O)NCC(=O)N[C@H](Cc1c[nH]c2ccccc12)C(=O)N[C@@H](CCCNC(=N)N)C(=O)N[C@@H](Cc1ccccc1)C(N)=O [Peptide 234] (Ac-[dA]NWNGFG[dW]RF-NH2) | – | – | 0.27±0.08 | 0.18±0.12 | 0.29±0.17 | 0.34±0.15 | 0.62±0.14 | 0.45±0.12 | no effect | block | significantly reduced; also recorded: blocked | 10 |
